# Non-standard residues stand in square brackets, D forms with d. No end group written: not given here. Aib = CC(C)(N)C(=O)O
# Legend:
# Assay type in all cases: cell-based
# ECV304 = assay: Tube-like-structure (TLS) formation on Matrigel; details: peptide −8M, 24 hours
# Method: Matrigel (350 ul) was placed into each well of a 24-well culture plate at 4° C. and was allowed to polymerize by incubation at 37° C. for 30 min. ECV304 (1.5×10^4) were seeded on the Matrigel in 500 ul DMEM supplemented with 10% FBS. MuJ-7 at four different concentrations of 0.25×, 0.5×, ×, & 5.0× were added and. the plate incubated at 37° C. for 24 hour. “×” denotes normal concentration of MuJ-7 where molar concentration of individual peptides was 10^−8 M for VIP2, BOM1, SP1, VIP3 and SOM2 and 10^−7 M for VIP1 and 10^−9 M for SOM1. […] Percent inhibition in tube area was determined with reference to untreated cells.
# Matrigel (350 ul) was placed into each well of a 24-well culture plate at 4° C. and was allowed to polymerize by incubation at 37° C. for 30 min. ECV304 (1.5×10^4) were seeded on the Matrigel in 500 ul DMEM supplemented with 10% FBS. […] Percent inhibition in tube length was determined with reference to untreated cells.
# Matrigel (350 ul) was placed into each well of a 24-well culture plate at 4° C. and was allowed to polymerize by incubation at 37° C. for 30 min. ECV304 (1.5×10^4) were seeded on the Matrigel in 500 ul DMEM supplemented with 10% FBS. Individual peptides of the composition MuJ-7 at three different concentrations each of N/10, N, and 10N were added and the plate incubated at 37° C. for 24 hours. […] Percent inhibition in tube length was determined with reference to Control. Similarly, three different concentrations of N/10, N, and 10N of MuJ-7 were added to the well and the plate incubated at 37° C. for 24 hours. Percent inhibition in tube length was determined with reference to Control as described previously (Table 10).
# [1] = system: endothelial cells ECV.304; assay: Migration assay across 8 μm polycarbonate filter transwell inserts; details: analog at optimum concentration −8M, 24 hours (Table 4)
# Method: Polycarbonate filter transwell inserts (24 well size) with 8 μm pores (Nunc, Denmark) were used for the migration assay. ECV304 (10^4 cells/200 ul DMEM containing 0.1% BSA) was added to the upper chamber. The lower chamber contained 600 ul of DMEM with 0.1% BSA. Individual peptides of the composition MuJ-7 at six different concentrations each of N/100, N/10, N, 10N, 100N and 1000N were added directly to the upper well and the plate incubated at 37° C. for 24 hours. The cells migrated to the lower chamber were viewed randomly at five different phase-contrast microscopic fields and the total number of cells counted using Video Pro 32 Image Analysis system. Percent inhibition in migration was determined with reference to the Control. Similarly, […] different concentrations of N/100, N/10, N, 10N, 100N and 1000N of MuJ-7 were added directly to the upper well and the plate incubated at 37° C. for 24 hours. The cells migrated to the lower chamber were counted as described above.
# Polycarbonate filter trasnwell inserts (24 well size) with 8 μm pores (Nuno, Denmark) were used for the migration assay. ECV304 (10^4 cells/200 ul DMEM containing 0.1% BSA) was added to the upper chamber. The lower chamber contained 600 ul of DMEM with 0.1% BSA. […] The sequence of each of the peptides added are described above. The cells migrated to the lower chamber were viewed randomly at five different phase-contrast microscopic fields and the total number of cells counted using Video Pro 32 Image Analysis system. Percent inhibition in migration was determined with reference to Control. […]
# ECV.304 cells = assay: MTT assay, inhibition of proliferation of endothelial cells ECV.304; details: 72 hours (Table 2)
# Method: 150 μl of medium was added to the wells of a 96-well tissue culture plate (Nunc, Denmark) followed by 30 μl of cell suspension. The plate was left in incubator (37° C., 5% CO2) overnight. Each of the seven peptides of the combination MuJ-7 were added at three molar concentrations of 10^−7M, 10^−8M and 10^−9M. 20 μl of MuJ-7 at three concentrations of N/10, N and 10N was added to marked wells of the 96-well plate. The value of N for each of the individual peptides was 10^−8M for VIP2, BOM1, SP1, VIP3, and SOM2 and 10^−7M for VIP1, and 10^−9M for SOM1. Each concentration was plated in triplicate. 20 μl of medium alone was added to control wells while wells without cells served as blanks. A total volume of 200 μl was ensured in each well and the plate was left in an incubator (37° C., 5% CO2). After 72 hours of incubation an MTT assay was performed and percentage inhibition in proliferation of treated cells was calculated with respect to control cells.
# 150 μl of medium was added to the wells of a 96-well tissue culture plate (Nunc, Denmark) followed by 30 μl of cell suspension. The plate was left in incubator (37° C., 5% CO2) overnight. Novel peptides shown below were incubated with cells at concentration range of 10^−7 to 10^−9 M (except DT71 at concentration range 10^−8 to 10^−10 M). Each concentration was plated in triplicates. 20 μl of medium alone was added to control wells while wells without cells served as blanks. A total volume of 200 μl was ensured in each well and plate was left in incubator (37° C., 5% CO2). After 72 hours of incubation an MTT assay was performed and percentage inhibition in proliferation of treated cells was calculated with respect to control cells.
substance,measurement,setting,value
Leu-Met-Tyr-Pro-Thr-D-Tyr-Leu-Lys-OH (LMYPT[dY]LK-OH; N-terminus assumed; SMILES CSCC[C@H](NC(=O)[C@@H](N)CC(C)C)C(=O)N[C@@H](Cc1ccc(O)cc1)C(=O)N1CCC[C@H]1C(=O)N[C@H](C(=O)N[C@H](Cc1ccc(O)cc1)C(=O)N[C@@H](CC(C)C)C(=O)N[C@@H](CCCCN)C(=O)O)[C@@H](C)O) [DT-13],INHIBITION OF TUBE LENGTH,ECV304,16.2%
same,PERCENT INHIBITION MIGRATION,[1],89.7%
same,PERCENT INHIBITION OF PROLIFERATION,"ECV.304 cells; ECV304, 10^−7M",22.6%
same,PERCENT INHIBITION OF PROLIFERATION,"ECV.304 cells; ECV304, 10^−8M",20.3%
same,PERCENT INHIBITION OF PROLIFERATION,"ECV.304 cells; ECV304, 10^−9M",18.4%
Leu-Met-Tyr-Pro-Thr-Tyr-D-Leu-Lys-OH (LMYPTY[dL]K-OH; N-terminus assumed; SMILES CSCC[C@H](NC(=O)[C@@H](N)CC(C)C)C(=O)N[C@@H](Cc1ccc(O)cc1)C(=O)N1CCC[C@H]1C(=O)N[C@H](C(=O)N[C@@H](Cc1ccc(O)cc1)C(=O)N[C@H](CC(C)C)C(=O)N[C@@H](CCCCN)C(=O)O)[C@@H](C)O) [DT-14],INHIBITION OF TUBE LENGTH,ECV304,24.3%
same,PERCENT INHIBITION MIGRATION,[1],77.3%
same,PERCENT INHIBITION OF PROLIFERATION,"ECV.304 cells; ECV304, 10^−7M",17.0%
same,PERCENT INHIBITION OF PROLIFERATION,"ECV.304 cells; ECV304, 10^−8M",6.0%
same,PERCENT INHIBITION OF PROLIFERATION,"ECV.304 cells; ECV304, 10^−9M",20.5%
[dF]QWAV[Aib]HI-NH2 [DT-27],INHIBITION OF TUBE LENGTH,ECV304,29.7%
same,PERCENT INHIBITION MIGRATION,[1],0%
same,PERCENT INHIBITION OF PROLIFERATION,"ECV.304 cells; ECV304, 10^−7M",14.3%
same,PERCENT INHIBITION OF PROLIFERATION,"ECV.304 cells; ECV304, 10^−8M",11.9%
same,PERCENT INHIBITION OF PROLIFERATION,"ECV.304 cells; ECV304, 10^−9M",6.7%
[dF]QWAV[Aib]HL-NH2 [DT-24],INHIBITION OF TUBE LENGTH,ECV304,16.2%
same,PERCENT INHIBITION MIGRATION,[1],0%
same,PERCENT INHIBITION OF PROLIFERATION,"ECV.304 cells; ECV304, 10^−7M",6.4%
same,PERCENT INHIBITION OF PROLIFERATION,"ECV.304 cells; ECV304, 10^−8M",9.8%
same,PERCENT INHIBITION OF PROLIFERATION,"ECV.304 cells; ECV304, 10^−9M",10.7%
[dL]MQWF[Aib]-NH2 [DT-33],INHIBITION OF TUBE LENGTH,ECV304,13.5%
same,PERCENT INHIBITION MIGRATION,[1],41.4%
same,PERCENT INHIBITION OF PROLIFERATION,"ECV.304 cells; ECV304, 10^−7M",8.7%
same,PERCENT INHIBITION OF PROLIFERATION,"ECV.304 cells; ECV304, 10^−8M",15.8%
same,PERCENT INHIBITION OF PROLIFERATION,"ECV.304 cells; ECV304, 10^−9M",13.9%
[dR]PKP[Aib]Q[dW]F[dW][Aib]L-NH2 [DT-34],INHIBITION OF TUBE LENGTH,ECV304,0%
same,PERCENT INHIBITION MIGRATION,[1],53.6%
same,PERCENT INHIBITION OF PROLIFERATION,"ECV.304 cells; ECV304, 10^−7M",12.1%
same,PERCENT INHIBITION OF PROLIFERATION,"ECV.304 cells; ECV304, 10^−8M",15.6%
same,PERCENT INHIBITION OF PROLIFERATION,"ECV.304 cells; ECV304, 10^−9M",14.3%
